What all share (assay type): cell-based
Assay [1] concerns HRV16. Put plainly: HRV16 HeLa EC50 (cytopathic effect in H1-HeLa cells). A digest of the protocol:
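Read-out is luminescent cell viability (CellTiter-Glo) after 96 h of infection at 33 °C, scaled between uninfected and infected-untreated wells. Before infection with titrated virus, compounds went onto H1-HeLa cells as triplicate 3-fold dilution series.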

Assay [2] concerns Dengue serotype 2 New Guinea C (NGC) strain. Put plainly: DENV-2 Huh-7 EC50 (qPCR in Huh7 cells). The method, then: Huh7 (Human hepatocarcinoma 7) cells were maintained in 10% FCS-containing DMEM complete media. On the day of the assay, cells were trypsinized (0.1% Trypsin-EDTA), washed and infected for 2 hours in serum-free DMEM with Dengue serotype 2 New Guinea C (NGC) strain at MOI=0.1 with gentle agitation at 37° C. After 2 hours, cells were washed with serum-free media and suspended in 10% FCS-containing DMEM (Gibco, supplemented with sodium pyruvate, NEAA, Penicillin-Streptomycin). 10^5 cells were plated in triplicate in 96-well plates with compounds dispensed at graded doses (Hewlett-Packard D300 Digital Dispenser). All wells were normalized to 0.25% DMSO. At 48 hours, cells were washed with 1×PBS and all supernatants removed. Total RNA was extracted using RNEasy 96 plates (Qiagen) and used to generate first-strand cDNA using XLT cDNA 5× Supermix (QuantaBio). cDNA was used as a template in a Taqman qPCR duplex reaction specific to DENV2 viral and GAPDH gene expression. EC50 values were determined using Prism Graphpad software, with normalization to a positive control and no compound negative control wells.
In general terms: In qPCR the cycle at which signal appears reflects the starting amount.

The subject of assay [3] is Dengue 2, New Guinea strain (NGC). The assay can be described thus: DENV moDC EC50 (qPCR in human monocyte-derived dendritic cells). The following applies: Table 3, human moDCs, 48 hours. On the procedure: Human monocyte-derived dendritic cells (moDCs) were derived from CD14+ monocytes (AllCells) cultured in Human Mo-DC Differentiation medium containing GM-CSF and IL-4 (Miltenyi Biotec). On day 7, moDCs were harvested by mechanical disruption, washed and suspended in serum-free RPMI. moDCs were infected with Vero-derived Dengue 2, New Guinea strain (NGC) at a MOI=0.1 for two hours in serum-free RPMI with gentle agitation at 37° C. Cells were washed and resuspended in 10% serum-containing RPMI (Gibco, supplemented with sodium pyruvate, NEAA, Penicillin-Streptomycin). […] were plated in triplicate in 96-well plates with compounds dispensed at graded doses (Hewlett-Packard D300 Digital Dispenser). All wells were normalized to 0.25% DMSO. At 48 hours, cells were washed with 1×PBS and all supernatants removed. Total RNA was extracted using RNEasy 96 plates (Qiagen) and used to generate first-strand cDNA using XLT cDNA 5× Supermix (QuantaBio). cDNA was used as a template in a Taqman qPCR duplex reaction specific to DENV2 viral and GAPDH gene expression. EC50 values were determined using Prism Graphpad software, with normalization to a positive control and no compound negative control wells.

Assay [4] deals with HCV Rep 1B. Put plainly: HCV Rep 1B EC50 (replicon luciferase). On the procedure:
(§1) Compounds were serially diluted in ten steps of 1:3 dilutions in 384-well plates. All serial dilutions were performed in four replicates per compound within the same 384-well plate. […] To each well of a black polystyrene 384-well plate (Greiner Bio-one, Monroe, NC), 90 μL of cell culture medium (without Geneticin) containing 2000 suspended HCV replicon cells was added with a Biotek μFlow workstation. For compound transfer into cell culture plates, 0.4 μL of compound solution from the compound serial dilution plate was transferred to the cell culture plate on a Biomek FX workstation. The DMSO concentration in the final assay wells was 0.44%. The plates were incubated for 3 days at 37° C. with 5% CO2 and 85% humidity. The HCV replicon assay was a multiplex assay, able to assess both cytotoxicity and antireplicon activity from the same well. The CC50 assay was performed first. The media in the 384-well cell culture plate was aspirated, and the wells were washed four times with 100 μL of PBS each, using a Biotek ELX405 plate washer. A volume of 50 μL of a solution containing 400 nM calcein AM (Anaspec, Fremont, CA) in 1×PBS was added to each well of the plate with a Biotek μFlow workstation. The plate was incubated for 30 min at room temperature before the fluorescence signal (excitation 490 nm, emission 520 nm) was measured with a Perkin-Elmer Envision plate reader. The EC50 assay was performed in the same wells as the CC50 assay. The calcein-PBS solution in the 384-well cell culture plate was aspirated with a Biotek ELX405 plate washer. A volume of 20 μL of Dual-Glo luciferase buffer (Promega, Madison, WI) was added to each well of the plate with a Biotek μFlow Workstation. The plate was incubated for 10 min at room temperature. A volume of 20 μL of a solution containing a 1:100 mixture of Dual-Glo Stop & Glo substrate (Promega, Madison, WI) and Dual-Glo Stop & Glo buffer (Promega, Madison, WI) was added to each well of the plate with a Biotek μFlow Workstation. The plate was then incubated at room temperature for 10 min before the luminescence signal was measured with a Perkin-Elmer Envision Plate Reader.
(In antiviral work, replicon cells carry a viral genome segment that copies itself.)

Assay [5] relates to HCV Rep 2A. The assay can be described thus: HCV Rep 2A EC50 (replicon luciferase). On the procedure:
as §1

The mark [6] stands for this setting: Table 3, H1-HeLa cells, 96 h, read-out: HRV16 HeLa EC50.
[7] abbreviates: Table 3, Huh7 cells, 48 hours, read-out: DENV-2 Huh7 EC50.
The mark [8] stands for this setting: 96 h, Table 3, H1-HeLa cells, 96 h, read-out: HRV16 HeLa EC50.
[9] abbreviates: Hepatitis C virus, 72 h, Table 4, replicon cells, 3 days, read-out: HCV Rep 1B EC50.
Setting [10] is: Dengue virus, DENV2, Huh-7, Table 3, Huh7 cells, 48 hours, read-out: DENV-2 Huh7 EC50.
Setting [11] is: Hepatitis C virus, 72 h, Table 4, replicon cells, 3 days, read-out: HCV Rep 2A EC50.
The mark [12] stands for this setting: Table 4, replicon cells, 3 days, read-out: HCV Rep 1B EC50.
Setting [13] is: Table 4, replicon cells, 3 days, read-out: HCV Rep 2A EC50.

pEC50: −log10 of the molar value. Read-outs that look alike come from different tables or passages of the source.

One may read the pEC50 as −log10 of the EC50, conventionally taken in molar units. In the case of `CC(C)C(=O)O[C@H]1[C@H](c2ccc3c(N)ncnn23)O[C@](C#N)(COP(=O)(N[C@@H](C)C(=O)OCC2CCOCC2)Oc2ccccc2)[C@H]1OC(=O)C(C)C` (single isomer, unassigned) [Example 183], the values for the pEC50 in assay [1] (setting [6]), in assay [2] (setting [7]) and in assay [3] were 7.06, 5.95 and 6.85, respectively.
As to `CCC(=O)O[C@H]1[C@H](c2ccc3c(N)ncnn23)O[C@](C#N)(CO[P@@](=O)(N[C@@H](C)C(=O)OC(C)C)Oc2ccccc2)[C@H]1OC(=O)CC` [Example 90, (2R,3S,4S,5S)-5-(4-Aminopyrrolo[2,1-f][1,2,4]triazin-7-yl)-2-cyano-2-((((S)-(((S)-1-isopropoxy-1-oxopropan-2-yl)amino)(phenoxy)phosphoryl)oxy)methyl) tetrahydrofuran-3,4-diyl dipropionate], the negative logarithm of the EC50 (pEC50) is 6.59 in assay [1] (setting [8]); 6.24 in assay [4] (setting [9]); 5.67 in assay [2] (setting [10]); 6.17 in assay [3] (Dengue virus, Dendritic cell); 5.94 in assay [5] (setting [11]).
As for `COC(=O)[C@H](C)N[P@](=O)(OC[C@@]1(C#N)O[C@@H](c2ccc3c(=N)n(COP(=O)(O)O)cnn23)[C@H](OC(=O)C(C)C)[C@@H]1OC(=O)C(C)C)Oc1ccccc1` [Example 259, (2R,3S,4S,5S)-2-cyano-5-(4-imino-3-((phosphonooxy)methyl)-3,4-dihydropyrrolo[2,1-f][1,2,4]triazin-7-yl)-2-((((S)-(((S)-1-methoxy-1-oxopropan-2-yl)amino)(phenoxy)phosphoryl)oxy)methyl)tetrahydrofuran-3,4-diyl bis(2-methylpropanoate)], the pEC50 was 5.95 in assay [4] (setting [9]), 5.73 in assay [2] (setting [10]) and 5.68 in assay [5] (setting [11]).
For `COC(=O)[C@H](C)N[P@](=O)(OC[C@@]1(C#N)O[C@@H](c2ccc3c(N)ncnn23)[C@H](OC(=O)C(C)C)[C@@H]1OC(=O)C(C)C)Oc1ccccc1` (single isomer, unassigned) [Example 140], the negative logarithm of the EC50 (pEC50) in assay [1] (setting [8]) is 7.08; in assay [1] (HeLa, read-out: HRV16 HeLa EC50, Table 5 comparative activity, 2',3'-OH vs -OC(O)iPr), 7.08; in assay [4] (setting [9]), 6.43; in assay [4] (Hepatitis C virus, read-out: HCV Rep1B EC50), 6.43; in assay [2] (setting [10]), 5.92; in assay [2] (Dengue virus, Huh-7, read-out: DENV Huh7 EC50) it was 5.92. The negative logarithm of the EC50 (pEC50) in assay [3] (Dengue virus, Dendritic cell) is 7.05; in assay [5] (setting [11]), 6.27; in assay [5] (Hepatitis C virus, read-out: HCV Rep2A EC50), 6.27.
With `CCC(=O)O[C@H]1[C@H](c2ccc3c(N)ncnn23)O[C@](C#N)(CO[P@@](=O)(N[C@@H](C)C(=O)OCC2CC2)Oc2ccccc2)[C@H]1OC(=O)CC` [Example 99], the pEC50 was 6.94 in assay [1] (setting [6]), 6.50 in assay [4] (setting [12]) and 6.22 in assay [5] (setting [13]).
For `CCC(=O)O[C@H]1[C@H](c2ccc3c(N)ncnn23)O[C@](C#N)(CO[P@@](=O)(N[C@@H](C)C(=O)OC)Oc2ccccc2)[C@H]1OC(=O)CC` (single isomer, unassigned) [Example 143], the pEC50 is 6.66 in assay [1] (setting [8]); 5.50 in assay [2] (setting [10]); 6.79 in assay [3] (Dengue virus, Dendritic cell).
In the case of `CC(C)C(=O)O[C@H]1[C@H](c2ccc3c(N)ncnn23)O[C@](C#N)(COP(=O)(N[C@@H](C)C(=O)OC2COC2)Oc2ccccc2)[C@H]1OC(=O)C(C)C` (single isomer, unassigned) [Example 186], the negative logarithm of the EC50 (pEC50) in assay [1] (setting [6]) was 7.36; in assay [4] (setting [12]), 6.51; in assay [2] (setting [7]), 5.76; in assay [5] (setting [13]), 6.08.
As for `CCC(=O)O[C@H]1[C@H](c2ccc3c(N)ncnn23)O[C@](C#N)(CO[P@@](=O)(N[C@@H](C)C(=O)OC2CCCCC2)Oc2ccccc2)[C@H]1OC(=O)CC` [Example 82, (2R,3S,4S,5S)-5-(4-aminopyrrolo[2,1-f][1,2,4]triazin-7-yl)-2-cyano-2-((((S)-(((S)-1-(cyclohexyloxy)-1-oxopropan-2-yl)amino)(phenoxy)phosphoryl)oxy)methyl) tetrahydrofuran-3,4-diyl dipropionate], the pEC50 in assay [1] (setting [8]) is 6.70; in assay [4] (setting [9]), 6.44; in assay [2] (setting [10]), 5.40; in assay [3] (Dengue virus, Dendritic cell), 6.10; in assay [5] (setting [11]), 6.09.
The like results for `CC(C)C(=O)O[C@H]1[C@H](c2ccc3c(N)ncnn23)O[C@](C#N)(CO[P@@](=O)(N[C@@H](C)C(=O)OC2CCCCC2)Oc2ccccc2)[C@H]1OC(=O)C(C)C` [Example 77, (2R,3S,4S,5S)-5-(4-aminopyrrolo[2,1-f][1,2,4]triazin-7-yl)-2-cyano-2-((((S)-(((S)-1-(cyclohexyloxy)-1-oxopropan-2-yl)amino)(phenoxy)phosphoryl)oxy)methyl) tetrahydrofuran-3,4-diyl bis(2-methylpropanoate)] were, in that order, 6.82, 6.22, 5.83, 6.73 and 6.03.
On to `CCC(CC)COC(=O)[C@H](C)N[P@](=O)(OC[C@@]1(C#N)O[C@@H](c2ccc3c(N)ncnn23)C(OC(=O)C(C)C)[C@@H]1OC(=O)C(C)C)Oc1ccccc1` (stereo in doubt) [Example 86, (2R,3S,4R,5S)-5-(4-aminopyrrolo[2,1-f][1,2,4]triazin-7-yl)-2-cyano-2-((((S)-(((S)-1-(2-ethylbutoxy)-1-oxopropan-2-yl)amino)(phenoxy)phosphoryl)oxy)methyl) tetrahydrofuran-3,4-diyl bis(2-methylpropanoate)], for which the pEC50 in assay [1] (setting [8]) is 6.72; in assay [4] (setting [9]) it was 6.03; in assay [2] (setting [10]), 5.85; in assay [3] (Dengue virus, Dendritic cell), 6.62; in assay [5] (setting [11]), 5.83.
As to `CC(C)C(=O)O[C@H]1[C@H](c2ccc3c(N)ncnn23)O[C@](C#N)(COP(=O)(N[C@@H](C)C(=O)OCC2COC2)Oc2ccccc2)[C@H]1OC(=O)C(C)C` (single isomer, unassigned) [Example 201], the results for the pEC50 in assay [1] (setting [6]), in assay [2] (setting [7]) and in assay [3] were 6.75, 6.50 and 7.24, respectively.

The record behind these values is patent US12264173B2 (GILEAD SCIENCES, INC., priority 2020, dated 2025).
